Test [1] addresses Adenylate cyclase type 10 (Homo sapiens, UniProt Q96PN6). The experiment in a line: Inhibition of human recombinant soluble adenylyl cyclase.
Test [2] addresses T1, Adenylate cyclase type 9 (Homo sapiens) (UniProt O60503).
T1 sequence (whole entry): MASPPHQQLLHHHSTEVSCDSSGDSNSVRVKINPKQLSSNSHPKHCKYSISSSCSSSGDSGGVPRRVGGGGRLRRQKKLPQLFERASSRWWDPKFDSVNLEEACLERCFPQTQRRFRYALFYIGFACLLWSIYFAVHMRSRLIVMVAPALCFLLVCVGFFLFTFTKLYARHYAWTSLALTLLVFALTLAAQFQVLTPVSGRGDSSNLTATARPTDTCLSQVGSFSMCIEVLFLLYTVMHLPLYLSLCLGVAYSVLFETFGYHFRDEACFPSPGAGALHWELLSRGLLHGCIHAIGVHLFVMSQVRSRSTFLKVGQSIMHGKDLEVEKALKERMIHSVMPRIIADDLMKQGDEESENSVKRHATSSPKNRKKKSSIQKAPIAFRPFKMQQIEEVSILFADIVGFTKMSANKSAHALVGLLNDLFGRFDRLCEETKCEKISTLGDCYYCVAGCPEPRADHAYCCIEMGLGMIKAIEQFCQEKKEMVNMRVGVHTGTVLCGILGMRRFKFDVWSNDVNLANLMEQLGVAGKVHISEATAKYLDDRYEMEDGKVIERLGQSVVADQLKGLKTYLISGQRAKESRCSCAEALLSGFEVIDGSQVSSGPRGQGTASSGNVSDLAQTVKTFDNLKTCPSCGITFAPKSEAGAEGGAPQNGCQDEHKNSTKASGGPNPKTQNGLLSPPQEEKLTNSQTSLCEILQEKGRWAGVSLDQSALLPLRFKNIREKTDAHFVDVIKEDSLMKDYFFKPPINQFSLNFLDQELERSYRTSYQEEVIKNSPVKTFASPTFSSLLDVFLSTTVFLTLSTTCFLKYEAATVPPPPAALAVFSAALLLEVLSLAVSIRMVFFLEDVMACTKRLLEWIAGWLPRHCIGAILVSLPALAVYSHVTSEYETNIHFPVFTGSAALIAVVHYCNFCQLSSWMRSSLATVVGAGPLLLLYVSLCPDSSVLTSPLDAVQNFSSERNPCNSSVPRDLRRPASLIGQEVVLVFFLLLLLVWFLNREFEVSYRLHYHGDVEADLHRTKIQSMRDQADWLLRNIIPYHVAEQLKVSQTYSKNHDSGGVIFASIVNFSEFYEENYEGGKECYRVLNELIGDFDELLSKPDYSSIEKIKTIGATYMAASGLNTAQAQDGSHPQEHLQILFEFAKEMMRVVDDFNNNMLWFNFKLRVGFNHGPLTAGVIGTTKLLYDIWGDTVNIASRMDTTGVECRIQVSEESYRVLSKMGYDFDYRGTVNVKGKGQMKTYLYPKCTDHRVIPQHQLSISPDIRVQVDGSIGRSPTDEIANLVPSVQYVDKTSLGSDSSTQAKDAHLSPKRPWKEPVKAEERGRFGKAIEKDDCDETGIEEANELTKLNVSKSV
The experiment in a line: Inhibition of basal activity of adenylyl cyclase 9 expressed in HEK293 cells at 100 uM. It is filed as cell-based.

The target in test [3] is Adenylate cyclase type 2 (Homo sapiens) (UniProt Q08462). The experiment in a line: Inhibition of basal activity of adenylyl cyclase 2 expressed in HEK293 cells at 100 uM. It counts as cell-based.
For test [4], the target named is Adenylate cyclase (Homo sapiens) (UniProt Q8NFM4+O60503+Q08828+P40145+O60266+O95622+O43306+Q08462+P51828). Put plainly: Inhibition of forskolin-stimulated human transmembrane adenylyl cyclase activity in HEK293 cells at 100 uM. It counts as cell-based.
Test [5] has as its target Adenylate cyclase type 5 (Homo sapiens) (UniProt O95622). Put plainly: Inhibition of forskolin-stimulated adenylyl cyclase 5 activity expressed in HEK293 cells at 100 uM. It is filed as cell-based.
The target in test [6] is Adenylate cyclase type 1 (Homo sapiens) (UniProt Q08828). Put plainly: Inhibition of forskolin-stimulated adenylyl cyclase 1 activity expressed in HEK293 cells at 100 uM. It is filed as cell-based.
The next test deals with T2, Adenylate cyclase (Arthrospira platensis, UniProt O32393).
T2 sequence (O32393 whole entry): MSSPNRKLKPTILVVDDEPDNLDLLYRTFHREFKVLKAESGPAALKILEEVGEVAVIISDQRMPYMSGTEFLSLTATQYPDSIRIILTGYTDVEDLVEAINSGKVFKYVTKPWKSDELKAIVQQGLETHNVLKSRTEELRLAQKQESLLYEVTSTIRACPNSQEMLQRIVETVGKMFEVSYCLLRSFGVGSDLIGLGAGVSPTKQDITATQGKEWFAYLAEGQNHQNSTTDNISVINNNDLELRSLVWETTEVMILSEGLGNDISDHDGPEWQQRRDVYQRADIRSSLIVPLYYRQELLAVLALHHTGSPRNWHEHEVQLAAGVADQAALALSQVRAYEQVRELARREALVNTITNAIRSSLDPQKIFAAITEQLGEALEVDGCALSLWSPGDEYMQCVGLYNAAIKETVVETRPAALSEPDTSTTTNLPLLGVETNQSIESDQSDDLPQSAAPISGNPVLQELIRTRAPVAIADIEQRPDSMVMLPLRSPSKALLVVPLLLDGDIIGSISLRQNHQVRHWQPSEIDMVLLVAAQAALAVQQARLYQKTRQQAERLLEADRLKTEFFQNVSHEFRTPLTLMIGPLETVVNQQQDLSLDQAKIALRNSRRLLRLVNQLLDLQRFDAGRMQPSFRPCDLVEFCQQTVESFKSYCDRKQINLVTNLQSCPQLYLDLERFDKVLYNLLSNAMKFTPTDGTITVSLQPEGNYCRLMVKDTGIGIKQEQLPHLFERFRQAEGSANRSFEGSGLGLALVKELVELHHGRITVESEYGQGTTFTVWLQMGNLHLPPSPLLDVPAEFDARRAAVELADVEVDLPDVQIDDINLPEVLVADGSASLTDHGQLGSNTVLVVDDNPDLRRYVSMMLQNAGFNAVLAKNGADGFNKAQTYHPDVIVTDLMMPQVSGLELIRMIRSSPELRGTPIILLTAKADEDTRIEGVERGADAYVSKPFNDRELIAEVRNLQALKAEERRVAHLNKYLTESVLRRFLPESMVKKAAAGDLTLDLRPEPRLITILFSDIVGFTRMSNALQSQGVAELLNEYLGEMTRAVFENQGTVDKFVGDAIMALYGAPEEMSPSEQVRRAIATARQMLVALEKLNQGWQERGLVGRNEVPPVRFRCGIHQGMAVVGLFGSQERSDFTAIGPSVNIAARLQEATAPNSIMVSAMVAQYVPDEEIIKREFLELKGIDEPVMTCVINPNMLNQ
Put plainly: Inhibition of Spirulina platensis adenylyl cyclase assessed as cAMP level by cAMP immunogenic assay. Also noted: species or system Limnospira platensis.

Test [7] has as its target Adenylate cyclase type 2 (Homo sapiens) (UniProt Q08462). The experiment in a line: Stimulation of basal activity of adenylyl cyclase 2 expressed in HEK293 cells at 100 uM in presence of forskolin. It counts as cell-based.

Structures are written as SMILES. Active and inactive are the calls of the source. No cut-off for these calls is given here.

Sequence of Adenylate cyclase type 10 (Q96PN6 whole entry): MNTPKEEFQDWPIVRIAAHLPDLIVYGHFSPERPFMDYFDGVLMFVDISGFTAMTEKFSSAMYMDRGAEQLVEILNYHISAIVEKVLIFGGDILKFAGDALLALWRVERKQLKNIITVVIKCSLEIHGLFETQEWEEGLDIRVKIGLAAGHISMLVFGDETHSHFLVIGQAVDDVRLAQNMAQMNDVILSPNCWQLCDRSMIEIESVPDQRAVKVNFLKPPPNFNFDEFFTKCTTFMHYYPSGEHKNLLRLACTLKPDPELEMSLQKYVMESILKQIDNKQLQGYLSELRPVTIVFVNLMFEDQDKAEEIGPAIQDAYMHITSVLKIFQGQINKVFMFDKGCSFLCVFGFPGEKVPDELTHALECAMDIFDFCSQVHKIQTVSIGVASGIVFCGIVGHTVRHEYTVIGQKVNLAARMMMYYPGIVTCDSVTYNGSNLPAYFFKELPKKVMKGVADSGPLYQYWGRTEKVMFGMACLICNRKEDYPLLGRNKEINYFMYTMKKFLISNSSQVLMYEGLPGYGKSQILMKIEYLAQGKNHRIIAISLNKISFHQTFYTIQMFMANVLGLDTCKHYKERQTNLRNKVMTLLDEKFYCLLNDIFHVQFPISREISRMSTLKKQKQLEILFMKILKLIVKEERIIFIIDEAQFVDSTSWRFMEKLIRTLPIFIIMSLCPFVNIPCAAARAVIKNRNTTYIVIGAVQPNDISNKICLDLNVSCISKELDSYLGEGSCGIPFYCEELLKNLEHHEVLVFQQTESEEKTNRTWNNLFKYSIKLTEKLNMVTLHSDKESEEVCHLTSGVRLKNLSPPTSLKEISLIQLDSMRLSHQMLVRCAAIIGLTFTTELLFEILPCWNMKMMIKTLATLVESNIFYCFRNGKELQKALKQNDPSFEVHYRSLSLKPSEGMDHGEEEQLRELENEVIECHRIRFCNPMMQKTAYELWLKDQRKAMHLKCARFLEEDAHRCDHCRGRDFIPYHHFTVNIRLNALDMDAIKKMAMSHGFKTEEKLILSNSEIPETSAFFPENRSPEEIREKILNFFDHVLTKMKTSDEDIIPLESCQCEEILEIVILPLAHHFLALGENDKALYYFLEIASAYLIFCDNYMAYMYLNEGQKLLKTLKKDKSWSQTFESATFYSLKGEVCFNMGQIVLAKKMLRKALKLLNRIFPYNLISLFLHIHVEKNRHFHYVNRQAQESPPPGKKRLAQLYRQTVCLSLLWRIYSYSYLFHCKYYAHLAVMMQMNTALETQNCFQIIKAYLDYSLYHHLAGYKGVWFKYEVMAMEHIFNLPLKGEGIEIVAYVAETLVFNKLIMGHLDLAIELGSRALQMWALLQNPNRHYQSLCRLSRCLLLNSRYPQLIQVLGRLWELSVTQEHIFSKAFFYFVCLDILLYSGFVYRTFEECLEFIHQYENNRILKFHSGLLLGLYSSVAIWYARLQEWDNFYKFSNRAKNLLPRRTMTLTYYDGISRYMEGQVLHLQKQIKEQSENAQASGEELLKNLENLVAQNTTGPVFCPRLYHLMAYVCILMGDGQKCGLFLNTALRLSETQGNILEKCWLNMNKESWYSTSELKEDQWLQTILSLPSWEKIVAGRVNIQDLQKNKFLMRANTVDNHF
Sequence of Adenylate cyclase type 2 (Homo sapiens) (Q08462 whole entry): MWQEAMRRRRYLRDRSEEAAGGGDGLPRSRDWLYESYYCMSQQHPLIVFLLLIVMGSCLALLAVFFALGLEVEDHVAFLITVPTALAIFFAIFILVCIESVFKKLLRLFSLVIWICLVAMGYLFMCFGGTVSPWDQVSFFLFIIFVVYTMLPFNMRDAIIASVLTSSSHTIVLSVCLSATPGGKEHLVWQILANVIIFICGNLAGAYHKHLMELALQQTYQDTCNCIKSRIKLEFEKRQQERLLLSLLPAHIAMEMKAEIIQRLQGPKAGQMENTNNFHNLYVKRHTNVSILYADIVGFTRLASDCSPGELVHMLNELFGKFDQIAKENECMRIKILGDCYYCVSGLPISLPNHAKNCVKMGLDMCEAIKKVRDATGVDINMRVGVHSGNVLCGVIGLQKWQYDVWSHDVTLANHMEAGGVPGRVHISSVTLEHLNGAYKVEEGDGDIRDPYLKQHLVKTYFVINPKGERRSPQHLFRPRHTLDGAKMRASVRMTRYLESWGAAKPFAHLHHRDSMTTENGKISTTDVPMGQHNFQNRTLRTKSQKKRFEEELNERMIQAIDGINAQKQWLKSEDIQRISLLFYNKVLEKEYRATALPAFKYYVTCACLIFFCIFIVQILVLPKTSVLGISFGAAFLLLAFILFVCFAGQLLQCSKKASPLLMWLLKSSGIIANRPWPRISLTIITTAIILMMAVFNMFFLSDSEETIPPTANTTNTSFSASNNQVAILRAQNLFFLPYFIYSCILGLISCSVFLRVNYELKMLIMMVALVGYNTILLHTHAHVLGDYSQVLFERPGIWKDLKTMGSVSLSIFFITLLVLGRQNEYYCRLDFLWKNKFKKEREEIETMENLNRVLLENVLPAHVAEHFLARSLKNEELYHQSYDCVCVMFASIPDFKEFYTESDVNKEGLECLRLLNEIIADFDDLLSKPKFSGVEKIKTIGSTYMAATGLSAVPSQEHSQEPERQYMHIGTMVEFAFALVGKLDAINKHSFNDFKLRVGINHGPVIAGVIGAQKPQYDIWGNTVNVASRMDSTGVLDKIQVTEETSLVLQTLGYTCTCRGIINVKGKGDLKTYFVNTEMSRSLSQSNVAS
Sequence of Adenylate cyclase type 5 (Homo sapiens) (O95622 whole entry, looked up): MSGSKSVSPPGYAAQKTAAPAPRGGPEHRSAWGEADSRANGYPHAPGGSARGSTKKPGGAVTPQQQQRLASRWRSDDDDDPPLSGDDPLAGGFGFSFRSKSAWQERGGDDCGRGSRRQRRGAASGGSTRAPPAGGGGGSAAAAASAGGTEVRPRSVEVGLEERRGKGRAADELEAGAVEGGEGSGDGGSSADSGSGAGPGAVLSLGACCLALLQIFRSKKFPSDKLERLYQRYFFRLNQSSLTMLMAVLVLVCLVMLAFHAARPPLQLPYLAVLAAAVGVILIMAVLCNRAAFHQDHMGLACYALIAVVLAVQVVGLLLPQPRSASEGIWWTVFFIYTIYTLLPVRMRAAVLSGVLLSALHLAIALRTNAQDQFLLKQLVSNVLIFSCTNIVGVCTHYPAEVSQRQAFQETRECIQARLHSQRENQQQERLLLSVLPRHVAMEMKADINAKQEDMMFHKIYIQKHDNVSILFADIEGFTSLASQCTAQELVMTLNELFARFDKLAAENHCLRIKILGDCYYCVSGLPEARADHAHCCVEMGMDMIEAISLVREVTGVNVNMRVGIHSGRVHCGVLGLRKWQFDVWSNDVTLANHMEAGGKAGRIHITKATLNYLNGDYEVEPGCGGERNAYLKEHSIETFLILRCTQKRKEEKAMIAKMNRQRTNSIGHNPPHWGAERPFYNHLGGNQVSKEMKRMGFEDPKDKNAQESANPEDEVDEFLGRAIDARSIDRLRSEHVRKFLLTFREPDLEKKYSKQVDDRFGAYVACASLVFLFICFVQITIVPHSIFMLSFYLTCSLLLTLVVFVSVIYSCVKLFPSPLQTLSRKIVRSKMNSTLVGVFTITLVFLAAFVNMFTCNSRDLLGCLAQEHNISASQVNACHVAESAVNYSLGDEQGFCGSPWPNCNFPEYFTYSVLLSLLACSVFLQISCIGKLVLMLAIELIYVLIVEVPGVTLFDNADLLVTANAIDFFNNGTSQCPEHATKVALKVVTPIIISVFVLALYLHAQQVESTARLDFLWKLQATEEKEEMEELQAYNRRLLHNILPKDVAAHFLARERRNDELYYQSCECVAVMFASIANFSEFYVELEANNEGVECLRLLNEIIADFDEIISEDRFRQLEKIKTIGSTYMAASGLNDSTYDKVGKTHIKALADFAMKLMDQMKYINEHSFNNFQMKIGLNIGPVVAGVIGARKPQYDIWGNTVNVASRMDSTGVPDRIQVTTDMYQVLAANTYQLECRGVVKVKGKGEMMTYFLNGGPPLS
Sequence of Adenylate cyclase type 1 (Homo sapiens) (Q08828 whole entry, looked up): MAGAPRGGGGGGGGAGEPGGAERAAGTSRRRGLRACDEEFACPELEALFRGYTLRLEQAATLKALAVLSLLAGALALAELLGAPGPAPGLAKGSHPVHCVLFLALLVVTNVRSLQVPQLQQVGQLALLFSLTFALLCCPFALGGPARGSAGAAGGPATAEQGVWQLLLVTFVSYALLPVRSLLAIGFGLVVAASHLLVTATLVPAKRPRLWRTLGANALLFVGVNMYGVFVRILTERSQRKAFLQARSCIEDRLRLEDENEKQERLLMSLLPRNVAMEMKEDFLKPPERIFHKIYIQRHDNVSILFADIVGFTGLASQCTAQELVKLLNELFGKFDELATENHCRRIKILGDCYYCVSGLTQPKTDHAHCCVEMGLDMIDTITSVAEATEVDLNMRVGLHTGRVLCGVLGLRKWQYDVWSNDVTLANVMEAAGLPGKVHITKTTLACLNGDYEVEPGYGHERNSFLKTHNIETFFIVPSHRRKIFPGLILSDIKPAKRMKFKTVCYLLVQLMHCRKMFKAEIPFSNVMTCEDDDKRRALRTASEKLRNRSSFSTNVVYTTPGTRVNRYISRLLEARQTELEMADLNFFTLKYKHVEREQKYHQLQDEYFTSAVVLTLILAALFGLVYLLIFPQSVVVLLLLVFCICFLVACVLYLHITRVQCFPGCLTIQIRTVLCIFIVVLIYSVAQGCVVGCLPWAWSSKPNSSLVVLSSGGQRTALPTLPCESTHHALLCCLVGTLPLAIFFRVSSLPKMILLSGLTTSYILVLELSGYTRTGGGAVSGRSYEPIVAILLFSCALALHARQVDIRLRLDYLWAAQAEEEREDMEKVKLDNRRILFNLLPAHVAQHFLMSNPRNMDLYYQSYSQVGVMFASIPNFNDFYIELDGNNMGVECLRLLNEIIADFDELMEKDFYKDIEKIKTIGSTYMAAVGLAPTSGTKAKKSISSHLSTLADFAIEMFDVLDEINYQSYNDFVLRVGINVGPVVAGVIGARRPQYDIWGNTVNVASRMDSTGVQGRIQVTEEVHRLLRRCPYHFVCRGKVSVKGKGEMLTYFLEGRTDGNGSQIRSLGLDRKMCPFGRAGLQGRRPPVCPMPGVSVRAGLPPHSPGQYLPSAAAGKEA

Consider `C[C@]12CC[C@H]3[C@@H](CCC4=CC(=O)CC[C@@]43C)[C@@H]1CC[C@@H]2C(=O)COS(=O)(=O)c1ccc(Br)cc1`, for which, in test [1], the IC50 (commonly the concentration that gives 50% inhibition) was 1.1 µM. Besides, the result in test [2], in test [3], in test [4], in test [5] and in test [6] was inactive.

As to `C[C@]12CC[C@@H]3c4cc(O)c(O)cc4CC[C@H]3[C@@H]1CC[C@@H]2O`, the IC50 in test [1] was 3 µM.

Regarding `BrC(c1cccc2ccccc12)c1cccc2ccccc12`, the IC50 at Adenylate cyclase amounted to 200 µM.

In the case of `O=C(O)c1cc2c(cc1S(=O)(=O)O)C1C(C3C2C2(Cl)C(Cl)=C(Cl)C3(Cl)C2(Cl)Cl)C2(Cl)C(Cl)=C(Cl)C1(Cl)C2(Cl)Cl` (stereo unspecified), the IC50 in test [1] amounted to 11 µM. In addition, the outcome in test [2], in test [3], in test [4], in test [7], in test [5] and in test [6] was Active.

Turning to `C[C@H]1[C@H](C)CC[C@]2(C(=O)O)CC[C@]3(C)C(=CC[C@@H]4[C@@]5(C)C[C@@H](O)[C@H](O)[C@@](C)(CO)[C@@H]5[C@H](O)C[C@]43C)[C@H]12` [MADECASSIC ACID], the IC50 on Adenylate cyclase came out at 100 µM.
